Laboratory results reported in ChEMBL document CHEMBL4400532, “Histone methyl transferases: A class of epigenetic opportunities to counter uncontrolled cell proliferation” (Eur J Med Chem, 2019).

Key:
HFL1 = assay: Cytotoxicity against human HFL1 cells after 72 hrs by CCK8 assay; type: cell-based; settings: HFL1, 72 h
CCD-18Co = assay: Cytotoxicity against human CCD-18Co cells after 72 hrs by CCK8 assay; type: cell-based
HCT-116 = assay: Cytotoxicity against human HCT116 cells after 72 hrs by CCK8 assay; type: functional, cell-based; settings: HCT-116, 72 h
PC-14 = assay: Cytotoxicity against human PC14 cells after 72 hrs by CCK8 assay; type: functional, cell-based; settings: PC-14, 72 h
A549 = assay: Cytotoxicity against human A549 cells after 72 hrs by CCK8 assay; type: functional, cell-based; settings: A549, 72 h
[1] = target: T1, Histone-arginine methyltransferase CARM1 (Homo sapiens, UniProt Q86X55); assay: Inhibition of CARM1 (unknown origin)
T1 sequence (Q86X55 whole entry): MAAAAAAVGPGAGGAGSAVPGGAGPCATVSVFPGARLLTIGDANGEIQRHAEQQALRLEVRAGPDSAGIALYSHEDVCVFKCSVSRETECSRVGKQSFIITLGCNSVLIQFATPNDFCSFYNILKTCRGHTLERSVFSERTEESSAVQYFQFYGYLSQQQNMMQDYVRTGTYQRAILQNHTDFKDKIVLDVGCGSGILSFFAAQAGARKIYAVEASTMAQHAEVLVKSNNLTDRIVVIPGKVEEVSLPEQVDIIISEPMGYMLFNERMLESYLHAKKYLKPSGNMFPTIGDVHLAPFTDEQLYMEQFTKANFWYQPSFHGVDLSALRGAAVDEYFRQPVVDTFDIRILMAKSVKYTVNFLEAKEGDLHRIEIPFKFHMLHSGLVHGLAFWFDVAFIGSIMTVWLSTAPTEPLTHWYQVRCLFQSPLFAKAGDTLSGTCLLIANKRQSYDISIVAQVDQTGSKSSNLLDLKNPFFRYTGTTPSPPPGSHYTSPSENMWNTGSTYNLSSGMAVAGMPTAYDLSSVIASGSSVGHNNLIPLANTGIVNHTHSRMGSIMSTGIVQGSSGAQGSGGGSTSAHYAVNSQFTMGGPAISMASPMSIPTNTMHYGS

[2] = target: Histone-lysine N-methyltransferase EZH2 (Homo sapiens, UniProt Q15910); assay: Inhibition of EZH2 (unknown origin)
[3] = target: Histone-lysine N-methyltransferase, H3 lysine-79 specific (Homo sapiens, UniProt Q8TEK3); assay: Inhibition of DOT1L in human THP1 cells assessed as reduction in H3K79 methylation measured after 7 days; type: cell-based
[4] = target: T2, Histone-lysine N-methyltransferase EHMT2 (Homo sapiens, UniProt Q96KQ7); assay: Inhibition of EHMT2 (unknown origin)
T2 sequence (Q96KQ7 whole entry): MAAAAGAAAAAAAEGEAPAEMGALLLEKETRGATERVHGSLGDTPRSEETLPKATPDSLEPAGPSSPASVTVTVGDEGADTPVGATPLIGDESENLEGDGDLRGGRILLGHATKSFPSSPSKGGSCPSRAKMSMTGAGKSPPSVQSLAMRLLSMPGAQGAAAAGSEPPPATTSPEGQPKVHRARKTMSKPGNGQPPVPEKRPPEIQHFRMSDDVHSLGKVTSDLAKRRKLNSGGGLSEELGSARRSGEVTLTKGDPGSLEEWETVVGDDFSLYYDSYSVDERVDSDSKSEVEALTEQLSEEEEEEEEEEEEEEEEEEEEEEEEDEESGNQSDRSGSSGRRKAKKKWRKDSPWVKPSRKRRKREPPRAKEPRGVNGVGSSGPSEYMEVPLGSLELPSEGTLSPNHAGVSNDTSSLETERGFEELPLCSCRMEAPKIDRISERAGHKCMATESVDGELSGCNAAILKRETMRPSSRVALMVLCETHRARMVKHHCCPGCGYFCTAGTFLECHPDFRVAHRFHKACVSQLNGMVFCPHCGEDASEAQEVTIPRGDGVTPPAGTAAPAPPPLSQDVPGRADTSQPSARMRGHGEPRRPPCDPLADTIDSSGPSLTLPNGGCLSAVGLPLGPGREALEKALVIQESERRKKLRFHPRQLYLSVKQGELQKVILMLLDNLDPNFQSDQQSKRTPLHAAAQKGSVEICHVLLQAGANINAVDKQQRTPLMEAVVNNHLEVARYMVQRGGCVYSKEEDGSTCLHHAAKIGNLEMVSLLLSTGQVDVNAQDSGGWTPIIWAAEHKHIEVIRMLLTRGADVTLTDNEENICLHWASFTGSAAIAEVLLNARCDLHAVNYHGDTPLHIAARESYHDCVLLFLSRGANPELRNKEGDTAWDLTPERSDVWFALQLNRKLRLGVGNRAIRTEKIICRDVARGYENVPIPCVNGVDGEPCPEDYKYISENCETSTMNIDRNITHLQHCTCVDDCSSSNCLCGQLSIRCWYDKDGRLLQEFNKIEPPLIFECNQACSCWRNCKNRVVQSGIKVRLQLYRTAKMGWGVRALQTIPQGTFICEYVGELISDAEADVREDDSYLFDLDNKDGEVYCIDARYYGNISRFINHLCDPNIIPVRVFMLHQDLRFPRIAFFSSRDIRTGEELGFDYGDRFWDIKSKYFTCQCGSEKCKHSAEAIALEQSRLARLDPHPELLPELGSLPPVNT

[5] = target: Protein arginine N-methyltransferase 5 (Homo sapiens, UniProt O14744); assay: Inhibition of PRMT5 (unknown origin)
Protein arginine N-methyltransferase 5, sequence (O14744 whole entry): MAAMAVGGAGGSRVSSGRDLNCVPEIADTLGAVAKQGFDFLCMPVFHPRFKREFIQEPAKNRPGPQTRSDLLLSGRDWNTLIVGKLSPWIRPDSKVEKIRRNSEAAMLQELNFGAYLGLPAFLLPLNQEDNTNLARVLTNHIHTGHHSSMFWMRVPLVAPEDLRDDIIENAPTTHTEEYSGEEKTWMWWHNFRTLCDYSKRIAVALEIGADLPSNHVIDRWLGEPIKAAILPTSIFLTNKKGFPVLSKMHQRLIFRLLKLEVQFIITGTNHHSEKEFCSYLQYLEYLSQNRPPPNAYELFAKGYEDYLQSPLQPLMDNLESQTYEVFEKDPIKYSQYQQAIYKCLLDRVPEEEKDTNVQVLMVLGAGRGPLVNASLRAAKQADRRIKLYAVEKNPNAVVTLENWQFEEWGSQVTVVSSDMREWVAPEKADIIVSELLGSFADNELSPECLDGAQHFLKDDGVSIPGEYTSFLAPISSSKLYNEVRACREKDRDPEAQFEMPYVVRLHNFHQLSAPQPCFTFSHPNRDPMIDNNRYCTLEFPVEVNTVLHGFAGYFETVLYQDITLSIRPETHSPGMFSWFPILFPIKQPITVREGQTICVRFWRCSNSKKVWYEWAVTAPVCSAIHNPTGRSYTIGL

Histone-lysine N-methyltransferase EZH2, sequence (Q15910 whole entry): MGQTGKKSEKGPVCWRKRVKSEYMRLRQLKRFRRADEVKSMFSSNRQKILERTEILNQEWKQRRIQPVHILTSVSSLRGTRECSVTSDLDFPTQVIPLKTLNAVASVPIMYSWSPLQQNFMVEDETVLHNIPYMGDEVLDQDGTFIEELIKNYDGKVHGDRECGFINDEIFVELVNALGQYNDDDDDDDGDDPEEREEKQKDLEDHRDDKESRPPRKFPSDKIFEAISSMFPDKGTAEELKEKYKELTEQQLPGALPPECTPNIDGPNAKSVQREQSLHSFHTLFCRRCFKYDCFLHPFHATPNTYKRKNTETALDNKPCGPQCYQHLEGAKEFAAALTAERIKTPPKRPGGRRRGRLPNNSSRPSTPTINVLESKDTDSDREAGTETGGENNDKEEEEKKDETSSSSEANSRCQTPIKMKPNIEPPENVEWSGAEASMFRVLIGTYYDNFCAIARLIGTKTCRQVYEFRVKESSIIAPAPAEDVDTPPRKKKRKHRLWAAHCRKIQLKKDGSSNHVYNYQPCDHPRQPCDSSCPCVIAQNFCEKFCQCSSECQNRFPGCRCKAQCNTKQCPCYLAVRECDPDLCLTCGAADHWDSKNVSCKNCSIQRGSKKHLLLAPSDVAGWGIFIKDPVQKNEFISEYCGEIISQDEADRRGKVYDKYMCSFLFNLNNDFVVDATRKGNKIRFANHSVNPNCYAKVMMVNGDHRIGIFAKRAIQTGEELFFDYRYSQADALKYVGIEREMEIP
Histone-lysine N-methyltransferase, H3 lysine-79 specific, sequence (Q8TEK3 whole entry): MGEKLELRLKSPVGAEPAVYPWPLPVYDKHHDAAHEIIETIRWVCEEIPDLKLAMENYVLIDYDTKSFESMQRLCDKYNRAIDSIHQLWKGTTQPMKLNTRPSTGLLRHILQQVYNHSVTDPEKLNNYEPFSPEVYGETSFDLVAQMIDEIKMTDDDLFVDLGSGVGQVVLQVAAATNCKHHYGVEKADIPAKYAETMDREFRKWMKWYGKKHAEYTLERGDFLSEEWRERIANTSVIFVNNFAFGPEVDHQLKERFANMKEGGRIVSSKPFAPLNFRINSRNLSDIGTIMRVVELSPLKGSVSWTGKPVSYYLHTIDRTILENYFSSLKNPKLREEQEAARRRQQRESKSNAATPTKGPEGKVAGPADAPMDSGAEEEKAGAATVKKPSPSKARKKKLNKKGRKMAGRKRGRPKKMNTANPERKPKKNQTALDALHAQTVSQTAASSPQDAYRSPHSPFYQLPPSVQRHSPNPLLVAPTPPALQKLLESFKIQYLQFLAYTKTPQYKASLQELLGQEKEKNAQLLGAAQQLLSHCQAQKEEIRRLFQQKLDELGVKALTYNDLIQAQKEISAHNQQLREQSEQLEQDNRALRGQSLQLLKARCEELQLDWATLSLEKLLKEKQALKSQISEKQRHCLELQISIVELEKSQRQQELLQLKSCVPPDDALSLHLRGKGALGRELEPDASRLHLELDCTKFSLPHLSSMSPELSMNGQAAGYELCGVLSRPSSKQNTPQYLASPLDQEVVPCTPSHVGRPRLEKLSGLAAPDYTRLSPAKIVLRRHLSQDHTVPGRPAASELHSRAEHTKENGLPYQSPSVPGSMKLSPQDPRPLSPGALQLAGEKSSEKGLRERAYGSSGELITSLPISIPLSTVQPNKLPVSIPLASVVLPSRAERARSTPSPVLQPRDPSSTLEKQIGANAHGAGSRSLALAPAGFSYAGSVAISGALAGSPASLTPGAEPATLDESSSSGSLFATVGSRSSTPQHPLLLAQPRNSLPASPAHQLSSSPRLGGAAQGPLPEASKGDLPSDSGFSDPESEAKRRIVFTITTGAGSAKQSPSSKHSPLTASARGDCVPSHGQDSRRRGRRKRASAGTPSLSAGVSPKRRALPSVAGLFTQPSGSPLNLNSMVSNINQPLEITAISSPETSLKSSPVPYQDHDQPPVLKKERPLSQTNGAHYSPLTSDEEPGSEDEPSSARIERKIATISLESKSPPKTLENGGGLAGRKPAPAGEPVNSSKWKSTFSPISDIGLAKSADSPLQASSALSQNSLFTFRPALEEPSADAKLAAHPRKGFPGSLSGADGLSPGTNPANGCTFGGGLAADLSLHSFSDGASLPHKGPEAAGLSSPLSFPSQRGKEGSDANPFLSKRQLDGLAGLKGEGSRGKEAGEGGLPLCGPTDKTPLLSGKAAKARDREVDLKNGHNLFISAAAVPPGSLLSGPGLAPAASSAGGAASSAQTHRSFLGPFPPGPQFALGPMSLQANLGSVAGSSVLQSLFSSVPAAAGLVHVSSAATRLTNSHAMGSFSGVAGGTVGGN

IC50 [1] [µM] | IC50 [2] [µM] | IC50 [3] [µM] | IC50 [4] [µM] | IC50 [5] [µM] | SMILES | IC50 (HFL1) [µM] | IC50 (CCD-18Co) [µM] | IC50 (HCT-116) [µM] | IC50 (PC-14) [µM] | IC50 (A549) [µM]
 |  |  |  |  | COc1cc(OC)c(-c2cn3cc(NCCN)c(OC)cc3n2)cc1Cl | < 10 | < 10 | < 10 | < 10 | < 10
> 50 | > 50 | < 0.1 | > 50 | > 50 | CC(CNC(=O)Nc1ccc(C(C)(C)C)cc1)CN(C)C[C@H]1O[C@@H](n2cnc3c(N)ncnc32)[C@H](O)[C@@H]1O (stereo not given in full) |  |  |  |  | 
